In patent publication US20130261066A1, “TREATMENT OF INFLAMMATORY BOWEL DISEASES USING A TRIPEPTIDE” (THE RESEARCH FOUNDATION OF STATE UNIVERSITY OF NEW YORK, priority 2010, published 2013):

How the values were obtained:
DSS-induced colitis [1] = experiment: DSS-induced colitis in mice, MC12 40 or 80 μg/mouse ip (Example 1); format: in vivo
Method: Female C57BL/6 and SJL/J mice (Taconic, Hudson, N.Y.), 7-9 weeks old, were kept under controlled temperature (25° C.) with a 12/12-hour light-dark cycle and free access to standard diet and drinking water. The mice were allowed to acclimate for 7 days before the start of experiments.
The mice received 2% dextran sulfate sodium (DSS, MW 36,000 to 50,000, MP Biomedicals, Solon, Ohio) in drinking water for 7 days; control mice received regular drinking water. During the period when DSS was administered, treated mice were given MC12 40 or 80 μg/mouse intraperitoneally (i.p.) whereas the control group was given saline i.p. The mice were weighed and monitored for rectal bleeding or prolapse daily. All mice were euthanized at the end of the study. Blood samples were collected and colons were dissected and their length was measured. The middle part of colon was fixed in 4% neutralized formalin and the rest was frozen for molecular analyses.
Paraffin-embedded tissue sections were stained with hematoxylin and eosin (H&E). In these sections, the histological score was determined based on epithelial denudation, loss of crypts, ulceration, edema and leukocyte infiltration using criteria that have been described previously (see Perretti, F. et al., 2009, Nat Rev Immunol 9:62-70)

myeloperoxidase (MPO) = experiment: Myeloperoxidase activity in colon tissue of DSS-treated mice; format: in vivo
Method: To further assess the effect of MC12 on the inflammatory changes associated with DSS induced colitis, myeloperoxidase (MPO) activity and cytosolic phospholipase A2 (cPLA2) in tissue samples was determined.
MPO activity is an indicator of the degree of acute inflammation in a given tissue. MPO activity was measured using a commercial kit and following the instructions of the manufacturer (Invitrogen, Eugene, Oreg.). Briefly, a portion of colon tissue was homogenized in PBS and centrifuged at 10,000×g for 15 min and 50 μl of supernatant from each sample were added into a 96-well microplate. 50 μl of 2×APF working solution was added to all sample and standard wells and the plate was incubated at room temperature for 30 min. The reaction was stopped by adding 10 μl of 10× chlorination inhibitor. The fluorescence intensity was measured using a Multiplate Reader (Molecular Devices) at excitation at 485 nm, emission at 530 nm.
To assess the effect of MC-12 on the inflammatory changes associated with DSS-induced colitis, myeloperoxidase activity in tissue samples was determined as above.

TNF-α = experiment: Colon cytokine mRNA by real-time PCR, DSS mice; format: in vivo; conditions: MC-12 at either dose (5 or 25 mg/kg)
Method: (§1) Expression of inflammatory cytokines TNF-α, IFN-γ, IL-1β, IL-6 and IL-10 in the colon was determined by measuring corresponding mRNA levels using real-time PCR. About 100 mg colon tissue were placed in 1 ml of cold Trizol (Invitrogen Life Technologies, Carlsbad, Calif.), immediately homogenized with a rotor power homogenizer, and RNA was extracted according to the manufacturer's instructions. Total RNA was retrotranscribed with M-MLV reverse transcriptase (Invitrogen Life Technologies, Carlsbad, Calif.) using random primers. Real-time quantitative PCR was performed in a CFD-3200 Opticon detector (BioRad, Hercules, Calif., USA) using QuantiTect SYBR Green PCR Kits (Qiagen, Valencia Calif., USA). The PCR cycling conditions were: 40 cycles of 60 seconds at 94° C., 30 seconds at 51.4° C. and 30 seconds at 72° C. PCR primers (forward and reverse primers) were designed based on published sequences: TNF-α: AGGCTGCCCCGACTACGT (SEQ ID NO:12) and […] (SEQ ID NO:13); IFN-γ: CAGCAACAGCAAGGCGAAA (SEQ ID NO:14) and CTGGACCT GTGGGTTGTTGAC (SEQ ID NO:15); IL-1β: […] (SEQ ID NO:16) and […] (SEQ ID NO:17); IL-6: […] (SEQ ID NO:18) and […] (SEQ ID NO:19); […]: […] (SEQ ID NO:20) and […] (SEQ ID NO:21); β-actin: […] (SEQ ID NO:20) and […] (SEQ ID NO:21). Relative expression levels of mRNA were normalized to β-actin.

IL-1β = experiment: Colon cytokine mRNA by real-time PCR, DSS mice; format: in vivo; conditions: MC-12 at either dose (5 or 25 mg/kg)
Method: as §1

IL-6 = experiment: Colon cytokine mRNA by real-time PCR, DSS mice; format: in vivo; conditions: MC-12 at either dose (5 or 25 mg/kg)
Method: as §1

IFN-γ = experiment: Colon cytokine mRNA by real-time PCR, DSS mice; format: in vivo; conditions: MC-12 at either dose (5 or 25 mg/kg)
Method: as §1

IL-10 = experiment: Colon cytokine mRNA by real-time PCR, DSS mice; format: in vivo; conditions: MC-12 at either dose (5 or 25 mg/kg)
Method: as §1

[2] = test system: NF-κB in NCM 460 cells (normal colon epithelial cells); experiment: NF-κB DNA binding activity (EMSA) in DSS-treated NCM460 cells; format: cell-based
DSS-induced colitis [3] = experiment: DSS-induced colitis in mice, MC-12 5 or 25 mg/kg ip or po (Example 4); format: in vivo; conditions: for reduction of histological score compared to DSS control: p<0.01
TNBS-induced colitis = TNBS-induced colitis (experimental Crohn's disease) in SJL/J mice; format: in vivo
Method: TNBS (2,4,6-trinitro benzene sulfonic acid) induces a form of colitis in SJL/J mice that recapitulates Crohn's disease. The optimal dose of TNBS was determined to be 100 μl of a 2.5% ethanolic solution instilled intracolonically. SJL mice received 2.5% TNBS solution in 50% ethanol by intra-colonic instillation using a 3.5 F catheter, which was inserted 4 cm into the colon under mild ketamine/xylazine anesthesia. Mice received MC-12 25 mg/kg or vehicle ip twice a day for two days. Body weight was monitored daily and mice were euthanized on the third day when blood and colon tissues were collected as described above for further analysis.
The fixed colon was cut into six equal fragments, dehydrated and embedded into paraffin. The tissue sections were stained with hematoxylin and eosin (H&E). The histological score was determined by two pathologists as described, based on the degree (0-3) and extent (0-3) of inflammation, crypt damage (0-4) and the area involved (0-4). The scores of each of the first three parameters were multiplied by the fourth and the sum of these three multiples was the final score (ranging from 0 to 40).

[4] = 2% DSS, MC12 40 or 80 μg/mouse ip

Substance: Gln-Ala-Trp (QAW) [MC12]
- DSS-induced colonic inflammation (H&E histology) (DSS-induced colitis [1]; 40 μg per mouse ip): significantly decreased DSS-induced colonic inflammation
- DSS-induced colonic inflammation (H&E histology) (DSS-induced colitis [1]; 80 μg per mouse ip): also decreased DSS-induced colonic inflammation
- weight loss (DSS-induced colitis [1]; 2% DSS 7 days, MC12 40 or 80 μg/mouse ip): dose-dependent reduction in weight loss
- colon length (DSS-induced reduction) (DSS-induced colitis [1]; [4]): prevented this reduction in colon length in a dose-dependent manner
- histological colitis score (DSS-induced colitis [1]; [4]): reduced the histological colitis score dose-dependently
- change in body weight (DSS-induced colitis [1]; 2% DSS, higher dose 80 μg/day ip, day 7): essentially no change in their weight
- histological colitis score, significance of reduction (DSS-induced colitis [1]; higher MC12 dose (80 μg)): statistically significant
- MPO activity (myeloperoxidase (MPO); MC12 80 μg dose): essentially normalized
- MPO activity (myeloperoxidase (MPO); MC12 40 or 80 μg): significant (p<0.01) and concentration-dependent reduction in MPO activity
- MPO activity (myeloperoxidase (MPO); MC-12 25 mg/kg): essentially normalized
- MPO activity (myeloperoxidase (MPO); MC-12 5 or 25 mg/kg): significant (p<0.01) and concentration-dependent reduction in MPO activity
- TNF-α mRNA level in colon (TNF-α): essentially normalized
- IL-1β mRNA level in colon (IL-1β): essentially normalized
- IL-6 mRNA level in colon (IL-6): below baseline
- IFN-γ mRNA level in colon (IFN-γ): below baseline
- IL-10 mRNA level in colon (IL-10): below baseline
- DSS-induced NF-κB-DNA binding activity (NF-κB activation) ([2]; 30 μM, listed as MC 12): significantly blocked this effect
- DSS-induced NF-κB-DNA binding activity (NF-κB activation) ([2]; 30 μM, listed as MC-12): essentially eliminated NF-κB activation
- DSS-induced NF-κB-DNA binding activity (NF-κB activation) ([2]; 300 μM, listed as MC 12): significantly blocked this effect
- DSS-induced NF-κB-DNA binding activity (NF-κB activation) ([2]; 300 μM, listed as MC-12): essentially eliminated NF-κB activation
- reduction of histological score compared to DSS control (DSS-induced colitis [3]; 5 mg/kg po): 50.2%
- DSS-induced colonic inflammation (H&E histology) (DSS-induced colitis [3]; 25 mg/kg orally): also decreased DSS-induced colonic inflammation
- reduction of histological score compared to DSS control (DSS-induced colitis [3]; 25 mg/kg po): 48.4%
- increase in weight compared to baseline (DSS-induced colitis [3]; highest ip dose 500 μg/day, day 8): 7.7%
- inflammatory cell infiltration and crypt loss (histology) (TNBS-induced colitis; 25 mg/kg bid for 2 d): decreased the inflammatory cell infiltration and crypt loss
- TNBS-caused shortening of colon length (TNBS-induced colitis; 25 mg/kg ip bid 2 d): did not prevent this effect
- reduction of body weight on day 3 compared to baseline (TNBS-induced colitis; 25 mg/kg ip bid 2 d, TNBS alone 18.2%): 15.3%
- histological score (mean±SEM) (TNBS-induced colitis; 25 mg/kg ip bid 2 d, TNBS control 38.3±1.7, scale 0 to 40): 23.3±3.3
- reduction of histological score compared to TNBS control (TNBS-induced colitis; 25 mg/kg ip bid 2 d, p<0.01): 39.1%
- prevention of weight loss (TNBS-induced colitis; 25 mg/kg ip twice a day for two days): did not prevent weight loss
